Each structure is given as a SMILES string. Like-named read-outs stand apart in the source and are kept apart here. Marks after values point to notes of the source that are not given here.

The nature of series [1]: Phase 1 Multiple Ascending Dose (MAD) study Part 1, plasma pharmacokinetics.
Method: All Part 1 cohorts will be dosed every 12 hours with food for 5 days.
During the treatment period (Day 1 through Day 5), participants will be administered their assigned study medication BID, every 12 h ± 0.25 h (with approximately 240 mL of non-carbonated water), 30 minutes after the start of consumption of their standardised breakfast or dinner (12 h apart). A standardised lunch will be served ≥ 4 h post breakfast and ≥ 4 h prior to dinner. An evening snack will be served ≥ 3 h following evening study medication administration. No additional fluids will be allowed during the 1 h pre- and post-doses. On Day 6, subjects will replicate mealtimes as scheduled on Day 1-5.
In Part 1, blood samples (4 mL each) for PK will be collected for Cohorts 1, 2, 3, 4, and 6 at specified times (hours) at each as follows: • Day 1 and Day 5: 0 (pre-dose), 0.5, 1, 1.5, 2, 2.5, 3, 3.5, 4, 6, 8, 12 (pre-dose), 13, 14, 15, 16, 18 h • Day 2, Day 3 and Day 4: 0 (pre-morning-dose) and 12 h (pre-evening-dose) • Day 6: 12, 18, 24 and 36 h post-last dose • Day 7: 48 h (post-last dose)
Pharmacokinetics for Day 1 to 3 in Part 2 (fed state) will be compared to PK for Day 1 to Day 3 in Part 2 (fasted state). Plasma PK parameters (non-compartmental or compartmental analysis as appropriate) will include, but are not limited to: • Following single dose: Tmax, tlag, Cmax, AUC0-4, AUC0-last, t½, AUC0-inf, lambda z, %AUCext, CL/F, Vz/F, Cmax/D, AUC0-last/D, AUC0-inf/D and MRT (D is dose) • After repeated doses: Ctrough, Ctrough/D • Following repeated doses on last day: Tmax, Cmax, Cavg, tlag, t½, AUC0-4, AUC0-last, AUC0-inf, lambda z, %AUCext, CLss/F, Vzss/F, MRT, PTF, Rac(AUC), Rac(Cmax), Cmax/D, AUClast/D, AUC0-inf/D and Rac (accumulation ratio)
All cohorts (n=6 each) were dosed every 12 hours with food for 5 days at either 100, 250, 500, or 750 mg BID. […] Following processing, the samples were analyzed by HPLC on a Phenomenex Luna PFP(2), 3 µm, 50 x 2.0 mm column, and the eluates were monitored by an API4000 MS/MS detector in positive MRM mode. The data were acquired and processed by the data acquisition system Analyst® (Sciex).
Series [2] can be described thus: Single dose, double-blinded, cross-over clinical trial of 801 mg LYT-100 vs pirfenidone, safety and pharmacokinetics. The conditions noted are these: for Metabolite/Parent Ratio, AUC0-∞, Mean / Metabolite/Parent Ratio, Cmax, Mean: MW-corrected; for metabolite as percent of parent in terms of AUC: single 801 mg dose; for Cmax / tmax: 5-hydroxymethyl metabolite after 801 mg of parent (LYT-110 after LYT-100, LYT-111 after pirfenidone); for Cmax / AUC0-t / AUC(inf) / Kel / t½: Mean (CV%); for tmax: Median (Range); for AUC0-t / AUC(inf) / Kel / t½: 5-hydroxymethyl metabolite after 801 mg of parent; for AUC(inf) / Kel / t½: n=23 LYT-110, n=19 LYT-111.
From the text: (§1) Following screening, eligible healthy volunteer subjects were admitted to a single clinical study site and were randomized to 1 of 2 treatment sequences. […] In each period, a standardized breakfast was provided to subjects prior to administration of study drug (to compare the PK profiles in the clinically relevant fed state) and plasma samples were collected over a 48-hour period after dosing for evaluation of PK. Dosing between the 2 periods was separated by a minimum of 7 days. Subjects completed the study upon completion of the 48-hour post-dose assessments following dosing period 2.
(§2) All capsules were identical in size, shape, and external color.

A short description of series [3]: Repeat dose oral toxicity and toxicokinetics study in Sprague Dawley rats.
Method: The protocol was amended to add additional TK male animals in Group 6 for Day 1 collection of TK samples at 875 mg/kg.
Blood samples were collected from 3 subsets of 3 animals/sex on Day 1 and Day 28 at predose, 0.25, 0.5, 1, 2, 4, 8 and 24 hours (hr) post-dose for groups 2 to 6 and from one subset of 3 animals/sex at 0.25 hr post-dose for the vehicle group (group 1). […] Non-compartmental analysis (NCA) of plasma concentration data was conducted using Phoenix® WinNonlin®, version 8.0.
The conditions of series [4]: cited from earlier work.
For series [5] the following is noted: human, in vivo, 48 h.
From the text: as §1, §2
For series [6] the following is noted: cited from earlier work. The source holds these as a separate data set.
The mark [7] stands for this setting: across dose groups 100, 250, 500, 750 mg BID (FIG. 20).
[8] abbreviates: across dose groups 100, 250, 500, 750, 1000 mg BID (FIG. 26).
Where [9] appears, read: after 801 mg LYT-100 (parent LYT-100).
[10] abbreviates: Day 1, Female, deuterated analyte / non-deuterated counterpart.
The mark [11] stands for this setting: after 801 mg pirfenidone (parent LYT-101).
[12] abbreviates: Lancaster et al. 2017, frequencies as high as.
Setting [13] is: patients aged at least 80 years.
Where [14] appears, read: single-center retrospective study of 351 patients.

For `[2H]C([2H])([2H])c1ccc(=O)n(-c2ccc(O)cc2)c1` [LYT-103, d3-4′-hydroxy-pirfenidone], the “average ratio to the parent (M/P) by AUC” value in series [1] (Cohort 4, 750 mg BID LYT-100) is 0.0017 (0.0012-0.0022). Moreover, the “average ratio to the parent (M/P) by AUC” value in series [1] (Cohort 6, 1000 mg BID LYT-100) was 0.0037 (0.0030-0.0058). Also, the “AUC accumulation ratio (AUC96-108/AUC0-12)” value in series [1] (setting [7]) is ~ 1. The “AUC accumulation ratio (AUC96-108/AUC0-12)” value in series [1] (setting [8]) was ~ 1. Moreover, in series [2] (setting [9]), the “Metabolite/Parent Ratio, AUC0-∞, Maximum” value was determined as 0.2%; the “Metabolite/Parent Ratio, AUC0-∞, Median” value turned out to be 0.1%; the “Metabolite/Parent Ratio, AUC0-∞, Minimum” value is 0.1%; the “Metabolite/Parent Ratio, Cmax, Maximum” value came to 0.2%. In addition, in series [2] (setting [9]), the “Metabolite/Parent Ratio, Cmax, Median” value turned out to be 0.1%; the “Metabolite/Parent Ratio, Cmax, Minimum” value was 0.1%; the “Metabolite/Parent Ratio, AUC0-∞, Mean” value came out at 0.1%; the “Metabolite/Parent Ratio, Cmax, Mean” value amounted to 0.1%. In series [2] (after LYT-100 801 mg), the “quantifiability of metabolite in human plasma” value is “not quantifiable”. In series [3] (setting [10]), the “similarity in exposure (AUC ratio), Group 4 (LYT-100 at 750 mg/kg) / Group 5 (SD-559 at 750 mg/kg)” value is on record as 21.77. Further, the “similarity in exposure (AUC ratio), Group 4 (LYT-100 at 750 mg/kg) / Group 5 (SD-559 at 750 mg/kg)” value in series [3] (Day 1, Male) turned out to be 34.51. Also, the “similarity in exposure (AUC ratio), Group 4 (LYT-100 at 750 mg/kg) / Group 5 (SD-559 at 750 mg/kg)” value in series [3] (Day 28, Female) is reported as 38.04.

In the case of `Cc1ccc(=O)n(-c2ccc(O)cc2)c1` [LYT-104, 4′-hydroxy-pirfenidone], in series [2] (setting [11]), the “Metabolite/Parent Ratio, Cmax, Maximum” value is given as 0.1%; the “Metabolite/Parent Ratio, Cmax, Median” value came to 0.0%; the “Metabolite/Parent Ratio, Cmax, Minimum” value amounted to 0.0%; the “Metabolite/Parent Ratio, Cmax, Mean” value is recorded as 0.0%. For the same molecule, the “metabolite as percent of parent in terms of AUC” value in series [2] is “less than 2%”.

In the case of `[2H]C([2H])(O)c1ccc(=O)n(-c2ccccc2)c1` [LYT-110, d2-5-hydroxymethyl-pirfenidone], the “average ratio to the parent (M/P) by AUC” value in series [1] (Cohort 4, 750 mg BID LYT-100) is 0.0025 (0.0020-0.0029). Moreover, the “average ratio to the parent (M/P) by AUC” value in series [1] (Cohort 6, 1000 mg BID LYT-100) is on record as 0.0028 (0.0018-0.0038). Also, the “AUC accumulation ratio (AUC96-108/AUC0-12)” value in series [1] (setting [7]) is ~ 1. Further, the “AUC accumulation ratio (AUC96-108/AUC0-12)” value in series [1] (setting [8]) is recorded as ~ 1. Besides, in series [2], the Cmax is given as 20.6 (30%) ng/mL, the tmax is 2.50 (1.00 - 4.00) hr, the AUC0-t is 111 (32%) hr*ng/mL and the “AUC(inf)” value is on record as 124 (32%) ^a hr*ng/mL. Besides, in series [2], the Kel is 0.294 (44%) ^a ⅟hr and the t½ is 2.76 (38%) ^a hr. In series [2] (setting [9]), the “Metabolite/Parent Ratio, AUC0-∞, Maximum” value is 0.4%; the “Metabolite/Parent Ratio, AUC0-∞, Median” value is on record as 0.2%; the “Metabolite/Parent Ratio, AUC0-∞, Minimum” value stood at 0.1%; the “Metabolite/Parent Ratio, Cmax, Maximum” value stood at 0.4%. In series [2] (setting [9]), the “Metabolite/Parent Ratio, Cmax, Median” value amounted to 0.2%; the “Metabolite/Parent Ratio, Cmax, Minimum” value was found to be 0.1%; the “Metabolite/Parent Ratio, AUC0-∞, Mean” value is on record as 0.2%; the “Metabolite/Parent Ratio, Cmax, Mean” value was determined as 0.2%. The “Cmax in rat relative to human” value in series [3] (750 mg/kg LYT-100, Day 1, male rat vs human 801 mg) is on record as ~1825 fold. Moreover, the “exposure (AUC) in rat relative to human” value in series [3] (750 mg/kg LYT-100, Day 1, male rats vs human 801 mg) is “about 1250 fold”. For the same molecule, the “similarity in exposure (AUC ratio), Group 4 (LYT-100 at 750 mg/kg) / Group 5 (SD-559 at 750 mg/kg)” value in series [3] (setting [10]) is 2.50. The “similarity in exposure (AUC ratio), Group 4 (LYT-100 at 750 mg/kg) / Group 5 (SD-559 at 750 mg/kg)” value in series [3] (Day 1, Male) is recorded as 2.22. In addition, the “similarity in exposure (AUC ratio), Group 4 (LYT-100 at 750 mg/kg) / Group 5 (SD-559 at 750 mg/kg)” value in series [3] (Day 28, Female) is on record as 2.59. In addition, the “similarity in exposure (AUC ratio), Group 4 (LYT-100 at 750 mg/kg) / Group 5 (SD-559 at 750 mg/kg)” value in series [3] (Day 28, Male) is on record as 2.54. For the same molecule, the “exposure and Cmax vs. non-deuterated corresponding metabolite (SD-788)” value in series [3] (SD-560 750 mg/kg vs SD-559 750 mg/kg, all days, both genders) is given as “almost twice”. In addition, the “exposure in rats relative to humans” value in series [3] (male rat after 28 days of daily dosing vs human) is reported as ~1600 fold.

Take `O=c1ccc(CO)cn1-c1ccccc1` [LYT-111, 5-hydroxymethyl-pirfenidone]: in series [2], the Cmax is 17.1 (36%) ng/mL, the tmax was 2.50 (1.50 - 4.00) hr, the AUC0-t is listed as 75.8 (42%) hr*ng/mL and the “AUC(inf)” value was 89.7 (41%) ^b hr*ng/mL. In series [2], the Kel is reported as 0.367 (29%) ^b ⅟hr, the t½ is given as 2.04 (29%) ^b hr and the “metabolite as percent of parent in terms of AUC” value is recorded as “less than 2%”. For the same molecule, in series [2] (setting [11]), the “Metabolite/Parent Ratio, AUC0-∞, Maximum” value stood at 0.4%; the “Metabolite/Parent Ratio, AUC0-∞, Median” value was 0.2%; the “Metabolite/Parent Ratio, AUC0-∞, Minimum” value came to 0.1%; the “Metabolite/Parent Ratio, Cmax, Maximum” value is 0.4%. In addition, in series [2] (setting [11]), the “Metabolite/Parent Ratio, Cmax, Median” value turned out to be 0.2%; the “Metabolite/Parent Ratio, Cmax, Minimum” value was found to be 0.1%; the “Metabolite/Parent Ratio, AUC0-∞, Mean” value is listed as 0.2%; the “Metabolite/Parent Ratio, Cmax, Mean” value was 0.2%.

As to `Cc1ccc(=O)n(-c2ccccc2)c1` [pirfenidone, 5-methyl-1-phenyl-1H-pyridin-2-one], in series [4] (Pirfenidone @ 800 mg), the “AUC, % Change Fed vs Fasted” value was -15%; the “Cmax, % Change Fed vs Fasted” value is recorded as -49%; the “Tmax, % Change Fed vs Fasted” value was “+500%”. Besides, in series [4] (pirfenidone), the “increase in Tmax, fed vs fasted” value is listed as 500%. In addition, the “tolerability of single doses” value in series [5] is on record as “well tolerated”. Moreover, in series [6] (setting [12]), the “diarrhea, TEAE frequency” value is reported as ≤ 27.6 per 100PEY; the “fatigue, TEAE frequency” value is ≤ 52.4 per 100PEY; the “nausea, TEAE frequency” value was ≤ 62.1 per 100 PEY. The “adverse drug reactions leading to permanent treatment discontinuation” value in series [6] (PASSPORT study, Cottin et al. 2018) was 28.7%. Further, the “patients who had an adverse event” value in series [6] (compassionate use program, Raghu & Thickett 2013) is on record as 44%. In series [6] (in humans), the half-life entry is listed as “about 2.5 hours”. In addition, the “ADR leading to discontinuation” value in series [6] (patients aged <65 years) was 7.5%. Moreover, in series [6] (setting [13]), the “ADR leading to discontinuation” value is listed as 20.9% and the “ADR leading to dose modification/interruption” value is recorded as 32.7%. The “ADR leading to dose modification/interruption” value in series [6] (patients aged less than 65 years) was 18.0%. Further, the “elevations of AST and ALT levels to >3× ULN” value in series [6] (phase III trials) is on record as 3.2%. In series [6] (setting [14]), the loss of appetite is reported as 17%, the nausea/vomiting is 15% and the “reported AEs that were GI-related” value is 75%.

The values are drawn from patent publication US20230255946A1 (Pure Tech LYT 100, Inc., priority 2020, published 2023).
